Data from US20220153732A1, “PROTEIN SECRETION INHIBITORS” (KEZAR LIFE SCIENCES, priority 2019, published 2022).
Like-named read-outs stand apart in the source and are kept apart here.

Columns and labels:
Format in all cases: cell-based
[1] = tested on: IL-2-FL/Gaussia Luciferase; assay: Dox Induced IL2-FL-Gluc Assay; settings: 293FRT/TO cells, read-out: 24 hr Dox Inducible IL2FLGIuc 293FRT/TO: Mean IC50
Summary of the method: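 Stable T-REx cell line expressing doxycycline-inducible IL-2-FL/Gaussia luciferase cDNA, plated the day before assay. Compound dilutions in DMSO/media containing doxycycline added and incubated at 37° C., 5% CO2. Unspecified stereochemistry means data refer to a stereoisomer mixture.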

[2] = tested on: human multiple myeloma cell line NCI-H929; assay: H929 Cell Viability Assay; settings: 48 hr, NCI-H929 cells, Celltiter-Glo, read-out: 48 hr H929 Viability Celltiter-Glo: Mean EC50
Procedure: Plates were incubated at 37° C., 5% CO2 for 48 hours. After 48 hours, Celltiter-Glo® (Promega) was added to each well and luciferase signal was quantified using Tecan Infinite M1000 Pro for cell viability determination.
For chemical structures that include one or more stereoisomers, but are illustrated without indicating stereochemistry, the assay data refers to a mixture of stereoisomers.

[3] = tested on: HER3-ss+4aa/Gaussia Luciferase; assay: Dox-Induced Her3-ss-Gluc Assay; settings: 293FRT/TO cells, read-out: 24 hr Dox Inducible Her3(ss + 4)Gluc 293FRT/TO: Mean IC50
Summary of the method: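 Stable T-REx cell line carrying a doxycycline-regulated HER3-ss+4aa/Gaussia luciferase insert, plated the day before assay. Compound dilutions in DMSO/media with doxycycline added, then incubated at 37° C., 5% CO2. Stereoisomer mixtures tested where stereochemistry is not drawn.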

[4] = tested on: PD1-ss+10aa/Gaussia Luciferase; assay: Dox-Induced PD1-ss-Gluc Assay; settings: 293FRT/TO cells, read-out: 24 hr Dox Inducible PD1ssGluc 293FRT/TO: Mean IC50
Summary of the method: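 Stable cell line carrying PD1-ss+10aa/Gaussia luciferase cDNA under T-REx (doxycycline-inducible) control, plated the day before assay. Compound dilutions in DMSO/media containing doxycycline added and incubated at 37° C, 5% CO2. Undefined stereocentres: data refer to stereoisomer mixtures.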

[5] = tested on: human multiple myeloma cell line U266B1; assay: U266 Cell Viability Assay; settings: U-266, 48 hr, U266B1 cells, Celltiter-Glo, read-out: 48 hr U266 Viability Celltiter-Glo: Mean EC50
Summary of the method: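 U266B1 myeloma cells treated with compound dilutions in DMSO/media for 48 h at 37 °C, 5% CO2. Viability read by CellTiter-Glo luminescence. Stereochemically undefined structures were tested as stereoisomer mixtures.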

[6] = tested on: TNFα-FL/Gaussia Luciferase; assay: Dox Induced TNFα-FL-Gluc Assay; settings: 293FRT/TO cells, read-out: 24 hr Dox Inducible TNFaFLGluc 293FRT/TO: Mean IC50
Summary of the method: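 A stable T-REx cell line carrying doxycycline-inducible TNFα-FL/Gaussia luciferase was plated the day before assay. Compound dilutions in DMSO/media containing doxycycline were then added and incubated at 37° C, 5% CO2.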

[7] = 24 hr doxycycline induction, Gaussia luciferase signal

| IC50 [1, 7] [nM] | EC50 [2] [nM] | IC50 [3, 7] [nM] | IC50 [4, 7] [nM] | EC50 [5] [nM] | IC50 [6, 7] [nM] | IC50 ([1]; 24 hr, doxycycline-induced) [nM] | IC50 ([3]; 24 hr, doxycycline-induced) [nM] | IC50 ([4]; 24 hr, doxycycline-induced) [nM] | IC50 ([6]; 24 hr, doxycycline-induced) [nM] | SMILES |
| --- | --- | --- | --- | --- | --- | --- | --- | --- | --- | --- |
| > 25000 | > 25000 | > 25000 | > 25000 | > 25000 | > 25000 |  |  |  |  | CC(C)OC(C)(C)c1csc(NC(=O)c2cccc(=O)n2Cc2ccncc2)n1 [Compound A106, N-(4-(2-isopropoxypropan-2-yl)thiazol-2-yl)-6-oxo-1-(pyridin-4-ylmethyl)-1,6-dihydropyridine-2-carboxamide] |
| 1890 | > 25000 | 2580 | 1210 | > 25000 | 23600 |  |  |  |  | CC(C)OC(C)(C)c1csc(NC(=O)c2cccn2[C@H](C)c2ccncc2)n1 [Compound A49, (R)-N-(4-(2-isopropoxypropan-2-yl)thiazol-2-yl)-1-(1-(pyridin-4-yl)ethyl)-1H-pyrrole-2-carboxamide] |
|  | 4720 |  |  | > 25000 |  | 178 | 82 | 64 | 423 | O=C(Nc1nc([C@H]2CC[C@@H]2c2ccccc2)cs1)c1cccn1Cc1ccncc1 [Compound A331] |
| 3930 | 9570 | 2420 | 1280 | 15700 | 6170 |  |  |  |  | O=C(Nc1nc(C2CCc3ccccc3O2)cs1)c1cccn1CCCc1ccncc1 (stereo not drawn) [Compound A286] |
| 11200 | > 25000 | 4130 | 1790 | > 25000 | > 25000 |  |  |  |  | CCc1cnc(NC(=O)c2cccn2Cc2ccncc2)s1 [Compound A65] |
| 29 | 1470 | 32 | 15 | > 25000 | 147 |  |  |  |  | O=C(Nc1nc([C@H]2CCCN2c2ccccc2)cs1)c1cccn1Cc1ccncc1 [Compound A275] |
|  | 14800 |  |  | > 25000 |  | 345 | 264 | 205 | 1850 | C[C@]1(c2csc(NC(=O)c3cccn3Cc3ccncc3)n2)CCCN1c1ccccc1 [Compound A338] |
| 197 | 9460 | 202 | 104 | > 25000 | 1620 |  |  |  |  | CC(C)(OCc1ccccc1)c1csc(NC(=O)c2cccn2Cc2ccncc2)n1 [Compound A9, N-(4-(2-(benzyloxy)propan-2-yl)thiazol-2-yl)-1-(pyridin-4-ylmethyl)-1H-pyrrole-2-carboxamide] |
|  | 10700 |  |  | 17900 |  | 9070 | 2310 | 12 | 7480 | Cc1ccc(/C=C/c2csc(NC(=O)c3cccn3Cc3ccncc3)n2)nc1 [Compound A357] |
| 2320 | 4920 | 1240 | 767 | 6100 | 4070 |  |  |  |  | O=C(Nc1nc(C2Cc3ccccc3C2)cs1)c1cccn1CCCc1ccncc1 [Compound A284] |
|  | > 25000 |  |  | > 25000 |  | 219 | 214 | 7 | > 25000 | COc1cnc(/C=C/c2csc(NC(=O)c3cccn3Cc3ccncc3)n2)c(F)c1 [Compound A299] |
| 5420 | > 25000 | 2600 | 694 | > 25000 | 11500 |  |  |  |  | O=C(Nc1nc(/C=C/C2CCCOC2)cs1)c1cccn1Cc1ccncc1 (stereo not drawn) [Compound A154, 1-(pyridin-4-ylmethyl)-N-(4-(2-(tetrahydro-2H-pyran-3-yl)vinyl)thiazol-2-yl)-1H-pyrrole-2-carboxamide] |
| 1340 | > 25000 | 1490 | 723 | > 25000 | 13100 |  |  |  |  | CC(C)(OCC1CCCCO1)c1csc(NC(=O)c2cccn2Cc2ccncc2)n1 (stereo not drawn) [Compound A39, 1-(pyridin-4-ylmethyl)-N-(4-(2-((tetrahydro-2H-pyran-2-yl)methoxy)propan-2-yl)thiazol-2-yl)-1H-pyrrole-2-carboxamide] |
| 648 | 18800 | 382 | 148 | > 25000 | 3300 |  |  |  |  | O=C(Nc1nc(CCc2ccccc2)cs1)c1cccn1Cc1ccncc1 [Compound A13, N-(4-phenethylthiazol-2-yl)-1-(pyridin-4-ylmethyl)-1H-pyrrole-2-carboxamide] |
| 3630 | > 25000 | 4010 | 1880 | > 25000 | 24800 |  |  |  |  | CC(C)(OCc1ccccn1)c1csc(NC(=O)c2cccn2Cc2ccncc2)n1 [Compound A257] |
| 1080 | 11800 | 807 | 448 | 13300 | 2410 |  |  |  |  | O=C(Nc1nc(Cc2ccccc2)cs1)c1cccn1CCCc1ccncc1 [Compound A184, N-(4-benzylthiazol-2-yl)-1-(3-(pyridin-4-yl)propyl)-1H-pyrrole-2-carboxamide] |
|  | 17200 |  |  | > 25000 |  | 2370 | 1690 | 879 | 13500 | CC(C)(OCc1ccc(N=[N+]=[N-])cc1)c1csc(NC(=O)c2cccn2Cc2ccncc2C#N)n1 [Compound A308] |
| > 25000 | 20500 | 296 | 141 | > 25000 | > 25000 |  |  |  |  | N#Cc1ccc(/C=C/c2csc(NC(=O)c3cccn3Cc3ccncc3)n2)cc1 [Compound A224, N-(4-(4-cyanostyryl)thiazol-2-yl)-1-(pyridin-4-ylmethyl)-1H-pyrrole-2-carboxamide] |
|  | 11300 |  |  | > 25000 |  | 475 | 582 | 289 | 3010 | O=C(Nc1nc([C@H]2CC[C@H]2c2ccccc2)cs1)c1cccn1Cc1ccncc1 [Compound A324] |
| 2080 | > 25000 | 3240 | 1880 | > 25000 | > 25000 |  |  |  |  | CC1(c2csc(NC(=O)c3cccn3Cc3ccncc3)n2)CC1 [Compound A67, N-(4-(1-methylcyclopropyl)thiazol-2-yl)-1-(pyridin-4-ylmethyl)-1H-pyrrole-2-carboxamide] |
| > 25000 | > 25000 | 1720 | 261 | > 25000 | > 25000 |  |  |  |  | O=C(Nc1nc(/C=C/c2ccc3c(n2)OCO3)cs1)c1cccn1Cc1ccncc1 [Compound A272] |
|  | 972 |  |  | > 25000 |  | 20 | 22 | 17 | 92 | CC(C)O[C@@H]1CC(c2csc(NC(=O)c3cccn3Cc3ccncc3)n2)N(c2ccccc2)C1 (stereo partly drawn) [Compound A346] |
| 8590 | > 25000 | > 25000 | 8130 | > 25000 | > 25000 |  |  |  |  | CC(C)OC(C)(C)c1csc(NC(=O)c2cccn2Cc2cccnc2)n1 [Compound A87, N-(4-(2-isopropoxypropan-2-yl)thiazol-2-yl)-1-(pyridin-3-ylmethyl)-1H-pyrrole-2-carboxamide] |
| 2380 | > 25000 | 3410 | 1670 | > 25000 | > 25000 |  |  |  |  | CC(C)OC(C)(C)c1csc(NC(=O)c2cccn2C(C)c2ccncc2)n1 (stereo not drawn) [Compound A61] |
| 2470 | 8990 | 1620 | 663 | 6890 | > 25000 |  |  |  |  | O=C(Nc1nc(/C=C/c2ccccc2)cs1)c1cccn1CCCc1ccncc1 [Compound A33, 1-(3-(pyridin-4-yl)propyl)-N-(4-styrylthiazol-2-yl)-1H-pyrrole-2-carboxamide] |
